The test system of this test is PBMCs infected with VSV-G pseudotyped HIV virus (VSV-G/pNLG1-P2A-ΔEnv). The test can be described thus: cells. The test is classed as cell-based, human. To be noted: Homo sapiens, PBMC, read-out: TACK EC50.

Structures are written as SMILES.

For `CC(F)(F)[C@@]1(C#CC2CC2)NC(=O)Nc2cc(Cn3nc[nH]c3=O)c(F)cc21` [Example 109, (S)-4-(cyclopropylethynyl)-4-(1,1-difluoroethyl)-6-fluoro-7-((5-oxo-4,5-dihydro-1H-1,2,4-triazol-1-yl)methyl)-3,4-dihydroquinazolin-2(1H)-one], the EC50 was determined as 0.0209 µM.

As to `CC(F)(F)[C@@]1(C#CC2CC2)NC(=O)Nc2cc(Cn3ncnc3C(N)=O)c(F)cc21` (single isomer, unassigned) [Example 114], the EC50 came out at 0.0185 µM.

With `Cc1nn(C)c(=O)n1Cc1cc2c(cc1F)[C@@](C#CC1CC1)(C(C)(F)F)NC(=O)N2` [Example 108, (S)-4-(cyclopropylethynyl)-4-(1,1-difluoroethyl)-7-((1,3-dimethyl-5-oxo-1,5-dihydro-4H-1,2,4-triazol-4-yl)methyl)-6-fluoro-3,4-dihydroquinazolin-2(1H)-one], the concentration for a half-maximal effect (EC50) amounted to 0.0183 µM.

Turning to `CC(O)c1ccn(Cc2cc3c(cc2F)[C@@](C#CC2CC2)(C(C)(F)F)NC(=O)N3)n1` (single isomer, unassigned) [Example 72, (S)-4-(cyclopropylethynyl)-4-(1,1-difluoroethyl)-6-fluoro-7-((3-((S or R)-1-hydroxyethyl)-1H-pyrazol-1-yl)methyl)-3,4-dihydroquinazolin-2(1H)-one], the EC50 came out at 0.0462 µM.

With `CC(F)(F)[C@@]1(C#CC2CC2)NC(=O)Nc2cc(Cn3cncc3CO)c(F)cc21` (single isomer, unassigned) [Example 50], the EC50 stood at 0.0681 µM.

On to `O=C1Nc2cc(CNC(=O)c3nccs3)c(F)cc2[C@@](C#CC2CC2)(C(F)(F)F)N1` [Example 89, (S)-N-((4-(cyclopropylethynyl)-6-fluoro-2-oxo-4-(trifluoromethyl)-1,2,3,4-tetrahydroquinazolin-7-yl)methyl)thiazole-2-carboxamide], for which the EC50 is 0.095 µM.

Regarding `O=C1Nc2cc(CN3Cc4ccccc4C3=O)c(F)cc2[C@@](C#CC2CC2)(C(F)(F)F)N1` [Example 96, (S)-4-(cyclopropylethynyl)-6-fluoro-7-((1-oxoisoindolin-2-yl)methyl)-4-(trifluoromethyl)-3,4-dihydroquinazolin-2(1H)-one], the EC50 is 0.0451 µM.

Take `O=C1Nc2cc(Cn3c(C4CC4)n[nH]c3=O)c(F)cc2[C@@](C#CC2CC2)(C(F)(F)F)N1` [Example 37, (S)-7-((3-cyclopropyl-5-oxo-1,5-dihydro-4H-1,2,4-triazol-4-yl)methyl)-4-(cyclopropylethynyl)-6-fluoro-4-(trifluoromethyl)-3,4-dihydroquinazolin-2(1H)-one]: the EC50 is 0.0429 µM.

As for `Cc1nnn(Cc2cc3c(cc2F)[C@@](C#CC2CC2)(C(F)(F)F)NC(=O)N3)n1` [Example 118, (S)-4-(cyclopropylethynyl)-6-fluoro-7-((5-methyl-2H-tetrazol-2-yl)methyl)-4-(trifluoromethyl)-3,4-dihydroquinazolin-2(1H)-one], the EC50 was found to be 0.0364 µM.

For `CC(F)(F)[C@@]1(C#CC2CC2)NC(=O)Nc2cc(Cn3cccn3)c(F)cc21` [Example 55, (S)-7-((1H-pyrazol-1-yl)methyl)-4-(cyclopropylethynyl)-4-(1,1-difluoroethyl)-6-fluoro-3,4-dihydroquinazolin-2(1H)-one], the EC50 amounted to 0.0217 µM.

For `CC(F)(F)[C@@]1(C#CC2CC2)NC(=O)Nc2cc(Cn3cc(F)c(CO)n3)c(F)cc21` [Example 67, (S)-4-(cyclopropylethynyl)-4-(1,1-difluoroethyl)-6-fluoro-7-((4-fluoro-3-(hydroxymethyl)-1H-pyrazol-1-yl)methyl)-3,4-dihydroquinazolin-2(1H)-one], the EC50 stood at 0.0261 µM.

For the compound `CC(F)(F)[C@@]1(C#CC2CC2)NC(=O)Nc2cc(Cn3cc4ccccc4n3)c(F)cc21` [Example 90, (S)-7-((2H-indazol-2-yl)methyl)-4-(cyclopropylethynyl)-4-(1,1-difluoroethyl)-6-fluoro-3,4-dihydroquinazolin-2(1H)-one], the EC50 was 0.0094 µM.

On to `COc1ccn(Cc2cc3c(cc2F)[C@@](C#CC2CC2)(C(C)(F)F)NC(=O)N3)n1` [Example 57, (S)-4-(cyclopropylethynyl)-4-(1,1-difluoroethyl)-6-fluoro-7-((3-methoxy-1H-pyrazol-1-yl)methyl)-3,4-dihydroquinazolin-2(1H)-one], for which the EC50 was found to be 0.0128 µM.

With `O=C1Nc2cc(Cn3cc4cncnc4n3)c(F)cc2[C@@](C#CC2CC2)(C(F)(F)F)N1` [Example 27, (S)-7-((2H-pyrazolo[3,4-d]pyrimidin-2-yl)methyl)-4-(cyclopropylethynyl)-6-fluoro-4-(trifluoromethyl)-3,4-dihydroquinazolin-2(1H)-one], the EC50 was found to be 0.0826 µM.

For `CC(F)(F)[C@@]1(C#CC2CC2)NC(=O)Nc2cc(Cn3nc(N)cc3Cl)c(F)cc21` [Example 60, (S)-7-((3-amino-5-chloro-1H-pyrazol-1-yl)methyl)-4-(cyclopropylethynyl)-4-(1,1-difluoroethyl)-6-fluoro-3,4-dihydroquinazolin-2(1H)-one], the EC50 came to 0.0289 µM.

On to `COc1cnn(Cc2cc3c(cc2Cl)[C@@](C#CC2CC2)(C(F)(F)F)NC(=O)N3)c1` [Example 123, (S)-6-chloro-4-(cyclopropylethynyl)-7-((4-methoxy-1H-pyrazol-1-yl)methyl)-4-(trifluoromethyl)-3,4-dihydroquinazolin-2(1H)-one], for which the EC50 turned out to be 0.079 µM.

For `CC(F)(F)[C@@]1(C#CC2CC2)NC(=O)Nc2cc(Cn3ccc(C#N)n3)c(F)cc21` [Example 17, (S)-1-((4-(cyclopropylethynyl)-4-(1,1-difluoroethyl)-6-fluoro-2-oxo-1,2,3,4-tetrahydroquinazolin-7-yl)methyl)-1H-pyrazole-3-carbonitrile], the EC50 is 0.0463 µM.

With `CN(Cc1cc2c(cc1F)[C@@](C#CC1CC1)(C(C)(F)F)NC(=O)N2)C(=O)c1ncc[nH]1` [Example 81, (S)-N-((4-(cyclopropylethynyl)-4-(1,1-difluoroethyl)-6-fluoro-2-oxo-1,2,3,4-tetrahydroquinazolin-7-yl)methyl)-N-methyl-1H-imidazole-2-carboxamide], the EC50 turned out to be 0.0121 µM.

`O=C1Nc2cc(Cn3cc4cccnc4n3)c(F)cc2[C@@](C#CC2CC2)(C(F)(F)F)N1` [Example 28, (S)-7-((2H-pyrazolo[3,4-b]pyridin-2-yl)methyl)-4-(cyclopropylethynyl)-6-fluoro-4-(trifluoromethyl)-3,4-dihydroquinazolin-2(1H)-one]: the EC50 was 0.104 µM.

On to `CC(F)(F)[C@@]1(C#CC2CC2)NC(=O)Nc2cc(CNC(=O)c3[nH]cnc3Cl)c(F)cc21` [Example 77, (S)-4-chloro-N-((4-(cyclopropylethynyl)-4-(1,1-difluoroethyl)-6-fluoro-2-oxo-1,2,3,4-tetrahydroquinazolin-7-yl)methyl)-1H-imidazole-5-carboxamide], for which the EC50 worked out at 0.0087 µM.

For `O=C1Nc2cc(Cn3c(=O)oc4ccccc43)c(F)cc2[C@@](C#CC2CC2)(C(F)(F)F)N1` [Example 13, (S)-3-((4-(cyclopropylethynyl)-6-fluoro-2-oxo-4-(trifluoromethyl)-1,2,3,4-tetrahydroquinazolin-7-yl)methyl)benzo[d]oxazol-2(3H)-one], the EC50 stood at 0.0143 µM.

As for `O=C1Nc2cc(CN3C(=O)CNC3=O)c(F)cc2[C@@](C#CC2CC2)(C(F)(F)F)N1` [Example 29, (S)-3-((4-(cyclopropylethynyl)-6-fluoro-2-oxo-4-(trifluoromethyl)-1,2,3,4-tetrahydroquinazolin-7-yl)methyl)imidazolidine-2,4-dione], the EC50 came to 0.0274 µM.

On to `CC(F)(F)[C@@]1(C#CC2CC2)NC(=O)Nc2cc(Cn3cc(-c4ccncc4)cn3)c(F)cc21` [Example 10, (S)-4-(cyclopropylethynyl)-4-(1,1-difluoroethyl)-6-fluoro-7-((4-(pyridin-4-yl)-1H-pyrazol-1-yl)methyl)-3,4-dihydroquinazolin-2(1H)-one], for which the EC50 came out at 0.0372 µM.

For `Cc1nn(Cc2cc3c(cc2F)[C@@](C#CC2CC2)(C(C)(F)F)NC(=O)N3)c(=O)n1C` [Example 128, (S)-4-(cyclopropylethynyl)-4-(1,1-difluoroethyl)-7-((3,4-dimethyl-5-oxo-4,5-dihydro-1H-1,2,4-triazol-1-yl)methyl)-6-fluoro-3,4-dihydroquinazolin-2(1H)-one], the EC50 amounted to 0.115 µM.

Turning to `Cc1cnn(Cc2cc3c(cc2F)[C@@](C#CC2CC2)(C(C)(F)F)NC(=O)N3)c1` [Example 11, (S)-4-(cyclopropylethynyl)-4-(1,1-difluoroethyl)-6-fluoro-7-((4-methyl-1H-pyrazol-1-yl)methyl)-3,4-dihydroquinazolin-2(1H)-one], the EC50 was found to be 0.0466 µM.

In the case of `O=C1Nc2cc(Cn3c(=O)[nH]c4ccncc43)c(F)cc2[C@@](C#CC2CC2)(C(F)(F)F)N1` [Example 41, (S)-4-(cyclopropylethynyl)-6-fluoro-7-((2-oxo-1,2-dihydro-3H-imidazo[4,5-c]pyridin-3-yl)methyl)-4-(trifluoromethyl)-3,4-dihydroquinazolin-2(1H)-one], the EC50 was determined as 0.0261 µM.

As for `O=C1Nc2cc(Cn3cc4ccncc4n3)c(F)cc2[C@@](C#CC2CC2)(C(F)(F)F)N1` (single isomer, unassigned) [Example 26], the EC50 amounted to 0.0136 µM.

As for `CC(F)(F)[C@@]1(C#CC2CC2)NC(=O)Nc2cc(Cn3cc(C(F)F)cn3)c(F)cc21` [Example 121, (S)-4-(cyclopropylethynyl)-4-(1,1-difluoroethyl)-7-((4-(difluoromethyl)-1H-pyrazol-1-yl)methyl)-6-fluoro-3,4-dihydroquinazolin-2(1H)-one], the EC50 was 0.0679 µM.

As for `CC(F)(F)[C@@]1(C#CC2CC2)NC(=O)Nc2cc(Cn3nnc4ccccc43)c(F)cc21` [Example 92, (S)-7-((1H-benzo[d][1,2,3]triazol-1-yl)methyl)-4-(cyclopropylethynyl)-4-(1,1-difluoroethyl)-6-fluoro-3,4-dihydroquinazolin-2(1H)-one], the EC50 was found to be 0.0106 µM.

`NC(=O)c1ncnn1Cc1cc2c(cc1F)[C@@](C#CC1CC1)(C(F)(F)F)NC(=O)N2` (single isomer, unassigned) [Example 116]: the EC50 was 0.0318 µM.

The term EC50 denotes the midpoint of the concentration-response curve.

The values above are taken from patent US20250026759A1 (Merck Sharp & Dohme LLC, priority 2023, published 2025).
